The text below walks through data of ChEMBL document CHEMBL1153636, “The phosphoramidate ProTide approach greatly enhances the activity of beta-2'-C-methylguanosine against hepatitis C virus” (Bioorg Med Chem Lett, 2009).

Molecules are shown by their SMILES.

For data set [1], the system named is Hepatitis C virus. The data set is described as follows: Antiviral activity against HCV assessed as inhibition of viral replicon replication in human Huh5-2 cells. Format: functional, organism-based, Hepacivirus hominis. The conditions noted are these: Huh-5-2.
Data set [2] can be described thus: Cytotoxicity against human Huh5-2 cells. Format: cell-based, Huh-5-2.
Data set [3] deals with carboxypeptidase. The data set is described as follows: Stability in presence of carboxypeptidase assessed as parent ProTide compound remaining after 10 mins. The conditions noted are these: read-out: Stability. It counts as ADME.
Data set [4] concerns carboxypeptidase. Briefly: Stability in presence of carboxypeptidase assessed as parent ProTide compound remaining. It counts as ADME.
Data set [5] deals with carboxypeptidase. The data set is described as follows: Stability in presence of carboxypeptidase assessed as parent ProTide compound remaining after 13 hrs. Format: ADME. To be noted: read-out: Stability.
Data set [6] relates to Hepatitis C virus. Briefly: Antiviral activity against HCV by viral replicon assay. It counts as functional, organism-based, Hepacivirus hominis.
Data set [7] can be described thus: Inhibition of HCV RNA-dependent RNA polymerase. Further details: species or system Hepacivirus hominis.

With `C[C@H](NP(=O)(OC[C@H]1O[C@@H](n2cnc3c(N)ncnc32)[C@](C)(O)[C@@H]1O)Oc1cccc2ccccc12)C(=O)OC(C)(C)C` (some centres undefined), the EC50 with Hepatitis C virus [1] is 4180 nM. The compound also yielded a CC50 in data set [2] above 50 µM.

For `CCOC(=O)[C@H](C)NP(=O)(OC[C@H]1O[C@@H](n2cnc3c(N)ncnc32)[C@](C)(O)[C@@H]1O)Oc1cccc2ccccc12` (some centres undefined), the EC50 in the data set with Hepatitis C virus [1] was found to be 240 nM. Moreover, the CC50 in data set [2] is above 50 µM.

On to `C[C@H](NP(=O)(OC[C@H]1O[C@@H](n2cnc3c(=O)[nH]c(N)nc32)[C@](C)(O)[C@@H]1O)Oc1cccc2ccccc12)C(=O)OCc1ccccc1` (some centres undefined), for which the EC50 in the data set on Hepatitis C virus [1] turned out to be 120 nM. The compound also showed a CC50 in data set [2] above 50 µM. Also, the remaining at 10 min in the data set with carboxypeptidase [3] was 7%. In the data set on carboxypeptidase [4], the half-life worked out at 3 min.

With `CCOC(=O)[C@H](C)NP(=O)(OC[C@H]1O[C@@H](n2cnc3c(=O)[nH]c(N)nc32)[C@](C)(O)[C@@H]1O)Oc1cccc2ccccc12` (some centres undefined), the EC50 with Hepatitis C virus [1] was 280 nM. For the same compound, in data set [2], the CC50 is above 50 µM.

Take `C[C@H](NP(=O)(OC[C@H]1O[C@@H](n2cnc3c(=O)[nH]c(N)nc32)[C@](C)(O)[C@@H]1O)Oc1cccc2ccccc12)C(=O)OC(C)(C)C` (some centres undefined): the EC50 in the data set on Hepatitis C virus [1] came to 27000 nM. In data set [2], the CC50 is above 50 µM. Moreover, the half-life with carboxypeptidase [4] is 1980 min. The remaining at 13 h in the data set on carboxypeptidase [5] was found to be 24%.

In the case of `COC(=O)[C@H](C)NP(=O)(OC[C@H]1O[C@@H](n2cnc3c(=O)[nH]c(N)nc32)[C@](C)(O)[C@@H]1O)Oc1cccc2ccccc12` (some centres undefined), the EC50 in the data set on Hepatitis C virus [1] stood at 230 nM. In addition, the CC50 in data set [2] was above 50 µM.

Take `C[C@H](NP(=O)(OC[C@H]1O[C@@H](n2cnc3c(N)ncnc32)[C@](C)(O)[C@@H]1O)Oc1cccc2ccccc12)C(=O)OCc1ccccc1` (some centres undefined): the EC50 in the data set on Hepatitis C virus [1] was 270 nM. Besides, the CC50 in data set [2] was above 50 µM.

For the compound `C[C@@]1(O)[C@H](O)[C@@H](CO)O[C@H]1n1cnc2c(N)ncnc21`, the EC50 with Hepatitis C virus [1] was 250 nM. This compound also displayed a CC50 in data set [2] above 50 µM.

With `C[C@@]1(O)[C@H](O)[C@@H](CO)O[C@H]1n1cnc2c(=O)[nH]c(N)nc21` [2'-B-METHYL-GUANOSINE], the EC50 in the data set on Hepatitis C virus [1] is 10100 nM; with Hepatitis C virus [6] it was 3.5 µM. Besides, the CC50 in data set [2] is above 50 µM. The compound also gave an IC50 in data set [7] of 130 nM.
